For one compound, IC50 results are on record in ChEMBL document CHEMBL3639140, “Naphthyridine derivatives as inhibitors of hypoxia inducible factor (HIF) hydroxylase” (2014).

The target of the experiment is Egl nine homolog 1 (Homo sapiens, UniProt Q9GZT9). The experiment is described as follows: For example, a HIF peptide for use in the HIF-PH assay is [methoxycoumarin]-[…]-amide. HIF-PH, e.g., HIF-PH2 (EGLN1), can be expressed in, e.g., insect Hi5 cells, and partially purified, e.g., through a SP ion exchange chromatography column. It is filed as cell-based, BTI-TN-5B1-4.
Sequence of Egl nine homolog 1 (Q9GZT9 whole entry): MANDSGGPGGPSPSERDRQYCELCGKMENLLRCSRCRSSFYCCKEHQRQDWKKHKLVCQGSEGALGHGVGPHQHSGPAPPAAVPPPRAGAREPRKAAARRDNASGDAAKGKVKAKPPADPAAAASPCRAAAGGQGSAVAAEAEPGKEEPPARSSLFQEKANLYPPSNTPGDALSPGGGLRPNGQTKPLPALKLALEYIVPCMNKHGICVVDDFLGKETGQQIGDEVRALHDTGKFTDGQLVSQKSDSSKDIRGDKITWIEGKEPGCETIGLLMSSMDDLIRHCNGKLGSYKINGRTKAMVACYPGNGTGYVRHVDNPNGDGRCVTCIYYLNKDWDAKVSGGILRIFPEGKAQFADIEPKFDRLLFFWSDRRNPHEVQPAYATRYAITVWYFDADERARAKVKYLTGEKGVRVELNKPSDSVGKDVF

As to `O=C(NCc1ccncc1)c1ncc2c(=O)n(Cc3ccccc3)ccc2c1O`, half-maximal inhibition (IC50) required 190 nM.

What is called IC50 is the concentration that inhibits the measured activity by half.
